Reference: patent US11155573B2, “Bile salt hydrolase probe and method of making and using the same” (Battelle Memorial Institute, priority 2017, dated 2021)

Tests used:
[1] = molecular target: T1, purified recombinant Lactobacillus plantarum BSH (Lactiplantibacillus plantarum, UniProt Q06115); assay: BA-ABP labeling of purified BSH; type: binding
T1 sequence (Q06115 1-324): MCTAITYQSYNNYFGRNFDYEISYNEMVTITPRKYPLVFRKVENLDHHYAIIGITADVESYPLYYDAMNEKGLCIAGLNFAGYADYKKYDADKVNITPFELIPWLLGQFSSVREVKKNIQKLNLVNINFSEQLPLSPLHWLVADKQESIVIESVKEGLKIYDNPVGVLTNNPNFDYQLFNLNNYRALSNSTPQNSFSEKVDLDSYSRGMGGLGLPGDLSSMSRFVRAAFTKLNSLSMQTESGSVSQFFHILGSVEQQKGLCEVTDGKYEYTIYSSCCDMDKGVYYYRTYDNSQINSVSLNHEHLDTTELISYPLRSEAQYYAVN
Description: Binding of BA-ABP to purified recombinant Lactobacillus plantarum BSH was assessed through incubation with probe in buffer (FIG. 18A). […] Additionally, labeling was time-dependent.

BSH [2] = assay: In vivo probe labeling in L. plantarum; type: cell-based, Lactobacillus plantarum
Description: (§1) The BSH probes were then assayed for retention of function in the presence of a complex cell lysate. Purified BSH was added to an organism that is not known to endogenously express BSH to precisely control this variable. […] After confirming that the BSH-ABP is capable of labeling BSH in complex biological mixtures, application of the probe was assayed for detection of endogenous BSH. L. plantarum was used because its expression of BSH is well-documented, and this organism is found in many popular over-the-counter probiotic formulations for support of healthy cholesterol levels.

BSH [3] = assay: Probe labeling of endogenous BSH in L. plantarum lysate; type: binding, Lactobacillus plantarum
Description: as §1

BSH [4] = molecular target: T2, BSH (Lactiplantibacillus plantarum, UniProt Q06115); assay: BA-ABP labeling of purified BSH added to Escherichia coli bacterial lysate; type: binding
T2 sequence (Q06115 1-324): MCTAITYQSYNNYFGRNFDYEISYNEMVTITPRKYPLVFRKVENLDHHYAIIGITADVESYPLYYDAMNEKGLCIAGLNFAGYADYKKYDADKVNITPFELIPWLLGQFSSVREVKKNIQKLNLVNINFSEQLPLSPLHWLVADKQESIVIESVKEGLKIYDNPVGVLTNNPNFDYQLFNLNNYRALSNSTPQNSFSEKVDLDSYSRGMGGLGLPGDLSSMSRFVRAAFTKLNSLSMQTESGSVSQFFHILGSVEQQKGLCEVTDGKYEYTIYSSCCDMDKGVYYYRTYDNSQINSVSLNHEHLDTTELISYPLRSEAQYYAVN
Description: as §1

[5] = test system: human gut microbiome lysate; assay: BSH ABP labeling in human gut microbiome lysate; type: binding
Description: The probes were assayed for activity in human gut microbiome extracts.

purified BSH [6] = conditions: read-out: Michaelis-Menten constant (Km); turnover by purified BSH, 0.1 M sodium phosphate pH 6, 37° C.
Description: Reaction volumes of 100 μL were used in Microfluor1 black flat bottom microtiter 96 well plates (Thermo Scientific). 50 μL of enzyme (40 μg/ml) in buffer (0.1 M sodium phosphate, pH=6) was added to each well. […] Reactions were immediately placed in a plate reader (SPECTRAmax Gemini XS) pre-warmed to 37° C., and reaction progress was monitored at 450 nm (excitation 350 nm) for 20 minutes. Reactions had final concentrations of 20 μg/ml enzyme, 0.1 M sodium phosphate (pH 6), and 2.5% DMSO.
The initial rate data was used for determination of Km values. For Km determination, the kinetic values were obtained directly from nonlinear regression of substrate-velocity curves in the presence of varying concentrations of BA-AMCA. The equation Y=(Vmax*X)/(Km+X*(1+X/Ki)), X=substrate concentration (μM) and Y=enzyme velocity (RFU/s); was used in the nonlinear regression. Each BA-AMCA Km value was determined using at least three independent experiments.

L. plantarum cells = assay: Whole-cell Lactobacillus plantarum assay; type: cell-based; conditions: varying amount of CAPE
Description: A starter culture was created by inoculation of 5 ml MRS broth from a L. plantarum colony grown on MRS agar. The starter culture was incubated overnight at 37° C. overnight. The 5 ml starter culture was then added to 95 ml fresh MRS broth and grown until the optical density at 600 nm reached 0.7. At that point, the cells were pelleted via centrifugation. The cell pellet was resuspended in 15 ml PBS, and centrifuged. The cells were additionally washed with PBS and pelleted once more. The resulting pellet was suspended in 380 μl PBS. The cell suspension was then serially diluted two-fold. […]

[7] = test system: endogenously expressed BSH in L. plantarum lysate; assay: Lactobacillus plantarum lysate assay; type: biochemical; conditions: CAPE 2 mM
Description: Reaction volumes of 100 μL were used in Microfluor1 black flat bottom microtiter 96 well plates (Thermo Scientific). […] A 50 μL solution of probe (300 μM) in buffer with 5% DMSO was then added to initiate the reaction. Reactions were immediately placed in a plate reader (SPECTRAmax Gemini XS) pre-warmed to 37° C., and reaction progress was monitored at 450 nm (excitation 350 nm) for 20 minutes.

purified BSH [8] = assay: GCA and iodoacetamide competition assay; type: biochemical; conditions: CA-AMCA 150 μM, BSH 10 μg/ml
[9] = substrate: Cc1c(CC(=O)O)c(=O)oc2cc(NC(=O)CC[C@@H](C)[C@H]3CC[C@H]4C5[C@H](O)C[C@@H]6C[C@H](O)CC[C@]6(C)[C@H]5C[C@H](O)[C@]34C)ccc12; assay: purified protein, by the assay type; type: biochemical; conditions: other: individual replicate, purified BSH 20 μg/ml, 0.1 M sodium phosphate pH 6, 2.5% DMSO, 37° C., 20 min, Ex 350/Em 450 nm
Description: Fluorescent signals for substrate turnover could be detected with as low as mid-nanomolar enzyme concentrations, which is considerably less enzyme when compared to micromolar concentrations required for conventional ninhydrin assays with purified BSH. […] Furthermore, robust signals could be reliably observed in the low micromolar substrate concentration range before any indication of substrate inhibition. Product formation was additionally confirmed through coupling of the BSH reaction to a secondary HPLC-based assay.

C#CCNC(=O)C=CCC[C@@H](C)[C@H]1CC[C@H]2C3[C@H](O)C[C@@H]4C[C@H](O)CC[C@]4(C)[C@H]3C[C@H](O)[C@]12C (stereo partly drawn) [BA-ABP]
labeling of purified BSH, time dependence [1]: time-dependent
labeling of purified BSH upon addition of free bile salts ([1]; competition with native substrate): could be attenuated
labeling of purified BSH, dose dependence ([1]; incubation with probe in buffer): dose-dependent
labeling in vivo in L. plantarum (BSH [2]): Labeling in vivo was also confirmed
fluorescence imaging of labeling in L. plantarum lysate (BSH [3]): a band consistent with BSH, along with several others
fluorescent gel labeling, BSH added to lysate of organism not expressing BSH (BSH [4]): a fluorescent band that is consistent with BSH labeling, along with several other unknown targets
labeling in gut microbiome lysate [5]: labeling was observed

Cc1c(CC(=O)O)c(=O)oc2cc(NC(=O)CC[C@@H](C)[C@H]3CC[C@H]4C5[C@H](O)C[C@@H]6C[C@H](O)CC[C@]6(C)[C@H]5C[C@H](O)[C@]34C)ccc12 (stereo partly drawn) [CA-AMCA]
Km (purified BSH [6]): 26 µM

O=C(/C=C/c1ccc(O)c(O)c1)OCCc1ccccc1 [CAPE, caffeic acid phenethyl ester]
effect on probe velocities in whole-cell suspension (L. plantarum cells): probe velocities were consistent with the amount of CAPE added
effect on CA-AMCA turnover in L. plantarum lysate [7]: Activity was not observed

C[C@H](CCC(=O)NCC(=O)O)[C@H]1CC[C@H]2[C@@H]3[C@H](O)C[C@@H]4C[C@H](O)CC[C@]4(C)[C@H]3C[C@H](O)[C@]12C [glycocholic acid]
effect on CA-AMCA turnover by BSH (purified BSH [8]; GCA 10 mM): Attenuated activity

NC(=O)CI [iodoacetamide, reference compound]
effect of pre-treatment on BA-ABP binding to BSH ([1]; pre-treatment before probe): Binding was ablated
effect on CA-AMCA turnover by BSH (purified BSH [8]; IAA 12 mM): completely ablated substrate turnover

B1: bile salt hydrolase (BSH), purified (Lactiplantibacillus plantarum WCFS1) (protein)
chain: MCTAITYQSYNNYFGRNFDYEISYNEMVTITPRKYPLVFRKVENLDHHYAIIGITADVESYPLYYDAMNEKGLCIAGLNFAGYADYKKYDADKVNITPFELIPWLLGQFSSVREVKKNIQKLNLVNINFSEQLPLSPLHWLVADKQESIVIESVKEGLKIYDNPVGVLTNNPNFDYQLFNLNNYRALSNSTPQNSFSEKVDLDSYSRGMGGLGLPGDLSSMSRFVRAAFTKLNSLSMQTESGSVSQFFHILGSVEQQKGLCEVTDGKYEYTIYSSCCDMDKGVYYYRTYDNSQINSVSLNHEHLDTTELISYPLRSEAQYYAVN
Km ([9]; FIG. 8B): 31.48 µM
Km ([9]; FIG. 8C): 22.57 µM
